Results as given in publication PMC8510591, “A comprehensive study of the basic formulation of supersaturated self-nanoemulsifying drug delivery systems (SNEDDS) of albendazolum” (Drug Delivery, 2021).
≈ marks a conversion by molar mass, not a printed value.

Experiments:
[1] = ABZ saturated solubility in the selected SNEDDS pre-concentrate and in water; format: physicochemical
Procedure: Excess ABZ was added to keep the glass vials containing 1 g of selected optimized SNEDDS preconcentrate (composed of 5% oleic acid, 65% tween 20, 30% PEG) airtight. The suspension was incubated at 30 ± 0.5 °C in a water bath for 72 h to attain equilibrium (Kang et al., [2012]). The suspension was then centrifuged for 15 min at 4000 rpm, after three days using an ultracentrifuge to eliminate the undissolved ABZ. This was then followed by filtration of the supernatant with a 0.22 µm membrane filter. After the desired dilution with solvent (methanol and 1 N HCl with 7:3) was achieved, the ultraviolet absorbance of the filtrate was measured using a UV spectrophotometer at 248 nm. Blanks of plain SNEDDS not containing any drugs diluted in the same ratio were used to cancel interference from the SNEDDS preconcentrate. The experiment was repeated thrice, and the average drug saturated solubility in mg/mL of the selected SNEDDS was calculated.

[2] = ABZ solubility in oils, surfactants and co-surfactants; format: physicochemical; details: 37 °C, 72 h
Procedure: The solubility tests were carried out on various oils, surfactants, and co-surfactants. The solubility determination method previously used by Meena et al. ([2012]) was employed. Excess ABZ was added to a volume of 1 g of the tested oil, surfactants, and co-surfactants, and placed in well-stoppered vials. The vials were agitated for 72 h (specified after determination of the equilibrium time beyond which the solubility is stable) at 37 ± 0.05 °C in a constant temperature water bath until equilibrium was attained. Subsequently, the vial's contents were centrifuged at 4000 rpm for 15 min using an ultracentrifuge to separate the insoluble ABZ. After being diluted with the solvent mixture (methanol and 1 N HCl with 7:3), the supernatants were filtered through a cellulose filter ([…]), and the ultraviolet absorbance of the filtrates was measured using the tested oil diluted with the solvent mixture as a blank to be 248 nm using a UV spectrophotometer. The materials used in the study included sunflower oil, Captex 300, PEG 300. PEG 400, soya oil, olive oil, crodamol oil, corn oil, Lauroglycol FCC, Cremophor EL, Solutol HS15, Labrafac lipophile WL1349, Capmul PG8, SPAN 20, Captex 355, Tween 80, Acrysol […], Labrasol, Cremophor RH40, Acrysol K140, Maisine, Sesame oil, Capmul MCM, Capryol PGMC, and propylene glycol. Results from each experiment were expressed as values in μg/mL.

Q: Which “average increase of solubility, SNEDDS pre-concentrate vs water” value ([1]; SNEDDS pre-concentrate relative to water) does the source give for CCCSc1ccc2nc(NC(=O)OC)[nH]c2c1 [ABZ, Albendazolum] here?
A: The value was 89 fold.

Q: And the solubility at 72 h ([1]; SNEDDS preconcentrate 5% oleic acid, 65% tween 20, 30% PEG, 30 °C, 72 h)?
A: The solubility at 72 h was 125 µg/mL (≈ 471 µM).

Q: And the solubility ([1]; water)?
A: Its solubility is 1.4 µg/mL (≈ 5.28 µM).

Q: And the Total solubility ([2]; in Acrysol K140)?
A: The Total solubility was 46.60 µg g^–1.

Q: What about the Total solubility ([2]; in Acrysol K150) of the same compound?
A: The Total solubility was 46.18 µg g^–1.

Q: What about the Total solubility ([2]; in Capmul MCM) of the same compound?
A: Its Total solubility is 5.59 µg g^–1.

Q: What about the Total solubility ([2]; in Capmul PG8) of the same compound?
A: The Total solubility was 139.88 µg g^–1.

Q: What about the Total solubility ([2]; in Capryol PGMC) of the same compound?
A: Its Total solubility is 179.48 µg g^–1.

Q: And the Total solubility ([2]; in Captex 300)?
A: The Total solubility was 40.23 µg g^–1.

Q: What about the Total solubility ([2]; in Captex 355) of the same compound?
A: Its Total solubility is 99.37 µg g^–1.

Q: And the Total solubility ([2]; in Cremophor EL)?
A: Its Total solubility is 179.76 µg g^–1.

Q: What about the Total solubility ([2]; in Cremophor RH40) of the same compound?
A: The Total solubility was 46.72 µg g^–1.

Q: What about the Total solubility ([2]; in Crodamol oil) of the same compound?
A: The Total solubility was 23.61 µg g^–1.

Q: What about the Total solubility ([2]; in Labrafac lipophile WL1349) of the same compound?
A: The Total solubility was 96.78 µg g^–1.

Q: And the Total solubility ([2]; in Labrasol)?
A: Its Total solubility is 188.13 µg g^–1.

Q: And the Total solubility ([2]; in Lauroglycol FCC)?
A: The Total solubility was 186.05 µg g^–1.

Q: What about the Total solubility ([2]; in Maisine) of the same compound?
A: Its Total solubility is 18.43 µg g^–1.

Q: What about the Total solubility ([2]; in Oleic acid) of the same compound?
A: The Total solubility was 734.20 µg g^–1.

Q: What about the Total solubility ([2]; in Olive oil) of the same compound?
A: Its Total solubility is 0.79 µg g^–1.

Q: And the Total solubility ([2]; in PEG 300)?
A: Its Total solubility is 340.45 µg g^–1.

Q: What about the Total solubility ([2]; in PEG 600) of the same compound?
A: The Total solubility was 498.90 µg g^–1.

Q: And the Total solubility ([2]; in Propylene glycol)?
A: Its Total solubility is 194.47 µg g^–1.

Q: And the Total solubility ([2]; in SPAN 20)?
A: Its Total solubility is 185.79 µg g^–1.

Q: What about the Total solubility ([2]; in Sesame oil) of the same compound?
A: The Total solubility was 3.73 µg g^–1.

Q: What about the Total solubility ([2]; in Solutol HS15) of the same compound?
A: Its Total solubility is 193.44 µg g^–1.

Q: What about the Total solubility ([2]; in Soya oil) of the same compound?
A: The Total solubility was 3.62 µg g^–1.

Q: And the Total solubility ([2]; in Sunflower oil)?
A: The Total solubility was 0.43 µg g^–1.

Q: What about the Total solubility ([2]; in Tween 20) of the same compound?
A: The Total solubility was 210.45 µg g^–1.

Q: And the Total solubility ([2]; in Tween 80)?
A: The Total solubility was 172.19 µg g^–1.
